In brackets after ≈: the same amount, converted by molar mass.
Tested on: BJ primary fibroblasts
Test: Cytotoxicity against BJ primary fibroblasts
Assay type: cell-based
Conditions: not given
Procedure: For CellTiter 96® Aqueous One Solution Cell Proliferation Assay (MTS) (Promega, Madison, WI, USA), cells were seeded at 5 × 10^3 per well in 96-well plates in quadruplicate together a control with no cells to evaluate the background. After 24 h, the culture medium was removed, and fresh medium containing increasing concentrations of chemical compounds was added to cells. The fixed final concentrations were 0.1 μM, 1 μM, 10 μM, and 100 μM. DMSO was the vehicle used for dilution of the compounds, and its final concentration on cells was less than 0.2%. Medium-only containing wells were included as controls. Cells were incubated with compounds at different concentrations for 72 h, then, 20 µL of CellTiter 96® AQueous One Solution Reagent was added into each well. After 3 h at 37 °C in a humidified, 5% CO2 atmosphere, the absorbance at 492 nm was recorded using an EZREAD400 (Biochrom, Cambridge, United Kingdom) plate reader. The average 490 nm absorbance from the “no cell” control wells was subtracted from all other values to yield background-corrected absorbance. Dose–response curves and CC50 values have been calculated by plotting the absorbance data as a function of inhibitor concentrations and fitting the data by least-squares nonlinear regression, according to the method of Marquardt–Levenberg, with the computer program GraphPad Prism 6.0.
Cells were incubated with a scalar concentration of DDX3X inhibitors, and after 72 h of treatment, cell viability was assessed by cytotoxicity assay. […] Compounds 4, 6, and BA103 were also evaluated against BJ primary fibroblasts; compound 4 has a cytotoxicity value of 84.7 μM; on the contrary, compounds 6 and BA103 were not toxic up to 200 μM concentration. This further excluded a possible nonspecific cytotoxic effect. […] Due to its interesting profile, compound BA103 was further tested against additional pulmonary (A549), breast (MDA-MB-231), colorectal (HCT-116), osteosarcoma (U2OS), rhabdomyosarcoma (RD18), GBM (DBTRG, U87, and U251) and medulloblastoma (DAOY) cancer cell lines.

| SMILES | cytotoxicity value |
| --- | --- |
| CCCCc1cn(-c2ccc(NC(=O)Nc3ccccc3C(F)(F)F)cc2)nn1 [BA103, 1-(4-(4-Butyl-1H-1,2,3-triazol-1-yl)phenyl)-3-(2-(trifluoromethyl)phenyl)urea] | > 200 µM |
| CCCCc1nnc(-c2ccc(NC(=O)Nc3ccccc3C(F)(F)F)cc2)[nH]1 [Compound 4, 1-(4-(5-Butyl-4H-1,2,4-triazol-3-yl)phenyl)-3-(2-(trifluoromethyl)phenyl)urea] | 84.7 µM |
| CCCCn1nnc(-c2ccc(NC(=O)Nc3ccccc3C(F)(F)F)cc2)n1 [Compound 6, 1-(4-(2-Butyl-2H-tetrazol-5-yl)phenyl)-3-(2-(trifluoromethyl)phenyl)urea] | > 200 µM |

Tested on: not listed separately
Test: Water solubility assay
Assay type: physicochemical
Conditions: 27 °C, thermodynamic from solid, read-out: LogS (aqueous solubility) (converted)
Procedure: Preliminary in vitro ADME analysis was performed to early evaluate the pharmacokinetic (PK) profile of our compounds (Figure 8). Aqueous solubility was calculated by LC-MS-MS analysis. An aliquot of 1 mg of compound was stirred for 24 h at 27 °C in 1 mL of water. The mixture was filtered, and the quantity of solubilized compound was determined. Passive permeability was determined using parallel artificial membrane permeability assay (PAMPA). Microsomal metabolic stability was determined by LC-UV-MS analysis by incubating compounds with human liver microsomes at 37 °C for 60 min (for details, see the Supporting Information). […]
Each solid compound (1 mg) was added to 1 mL of water. The samples were shaked in a shaker bath at room temperature for 24-36 h. The suspensions were filtered through a 0.45 μm nylon filter (Acrodisc), and the solubilized compound determined by LC-MS-MS assay. For each compound the determination was […]
For the quantification was used an LC-MS system consisted of a Varian apparatus (Varian Inc) including a vacuum solvent degassing unit, two pumps (212-LC), a Triple Quadrupole MSD (Mod. 320-LC) mass spectrometer with ES interface and Varian MS Workstation System Control Vers. 6.9 software.
Chromatographic separation was obtained using a Pursuit C18 column (50 x 2.0 mm) (Varian) with 3 μm particle size and gradient elution: eluent A being ACN and eluent B consisting of water. […] The flow rate was 0.2 mL min-1 and injection volume was 5 μL. The instrument operated in positive mode and parameters were: detector 1850 V, drying gas pressure 25.0 psi, desolvation temperature 300.0 °C, nebulizing gas 40.0 psi, needle 5000 V and shield 600 V. Nitrogen was used as nebulizer gas and drying gas. […]
Chromatographic analysis was performed with an Agilent 1100 LC/MSD VL system (G1946C) (Agilent Technologies, Palo Alto, CA) constituted by a vacuum solvent degassing unit, a binary high-pressure gradient pump, an 1100 series UV detector, and an 1100 MSD model VL benchtop mass spectrometer.
Chromatographic separation was obtained using a Varian Polaris C18-A column (150-4.6 mm, 5 μm particle size) and gradient elution: eluent A being ACN and eluent B consisting of water. The analysis started with 2% […]
flow rate was 0.8 mL min-1 and injection volume was 20 μL.
The Agilent 1100 series mass spectra detection (MSD) single-quadrupole instrument was equipped with the orthogonal spray API-ES (Agilent Technologies, Palo Alto, CA). Nitrogen was used as nebulizing and drying gas. The pressure of the nebulizing gas, the flow of the drying gas, the capillary voltage, the fragmentor voltage, and the vaporization temperature were set at 40 psi, 9 L/min, 3000 V, 70 V, and 350 °C, respectively. […]
Spectra were acquired over the scan range m/z 100-1500 using a step size of 0.1 u. […]

| solubility at 24 h | SMILES |
| --- | --- |
| < 0.0251 µM | CCCCc1nnc(-c2ccc(NC(=O)Nc3ccccc3C(F)(F)F)cc2)o1 [Compound 3, 1-(4-(5-Butyl-1,3,4-oxadiazol-2-yl)phenyl)-3-(2-(trifluoromethyl)phenyl)urea] |
| 0.275 µM (≈ 0.111 µg/mL) | CCCCc1nnc(-c2ccc(NC(=O)Nc3ccccc3C(F)(F)F)cc2)[nH]1 [Compound 4, 1-(4-(5-Butyl-4H-1,2,4-triazol-3-yl)phenyl)-3-(2-(trifluoromethyl)phenyl)urea] |
| < 0.0251 µM | CCCCn1nnc(-c2ccc(NC(=O)Nc3ccccc3C(F)(F)F)cc2)n1 [Compound 6, 1-(4-(2-Butyl-2H-tetrazol-5-yl)phenyl)-3-(2-(trifluoromethyl)phenyl)urea] |
| < 0.0363 µM | CC(C)CCc1cn(-c2ccc(NC(=O)Nc3cccc4cnccc34)cn2)nn1 [Compound 10, 1-(6-(4-Isopentyl-1H-1,2,3-triazol-1-yl)pyridin-3-yl)-3-(isoquinolin-5-yl)urea] |
